We go through 13 molecules from patent US10407422B2, “Triazolopyridine inhibitors of myeloperoxidase” (priority 2015, dated 2019).

Assay [1] concerns the target T1, myeloperoxidase (MPO) (Homo sapiens (Human), UniProt P05164). Description: MPO peroxidation assay (Amplex Red assay). The conditions noted are these: potency range class. Format: biochemical. On the procedure: MPO Peroxidation Assay (Amplex Red Assay) MPO peroxidation activity was measured in 100 mM KPi (pH 7.4) by utilizing the non-fluorescent reagent Amplex Red (Invitrogen Cat. #A12222) which can be oxidized to the highly fluorescent resorufin. Amplex Red is oxidized by the peroxidase action of MPO to resorufin. Reactions were carried out in 50 μL total volume by adding a 25 μL mixture of 200 pM myeloperoxidase and 40 nM H2O2(Sigma #349887) to 100 nL inhibitor in 100% DMSO in a 384 well Perkin Elmer Optiplate. Enzyme and compound were preincubated for ten minutes at room temperature. After the ten minute preincubation, 25 μL of an Amplex Red mixture containing 200 μM Amplex Red and 10 mM H2O2 was added to the plate. Kinetic determinations were carried out immediately on a Perkin Elmer Envision (15 minute kinetic read, Ex: 535 nm, Em: 590 nm). IC50 values were calculated by determining the slope of the linear portion of the kinetic trace (180-540 secs), and using that calculated slope to determine % inhibition occurring at each concentration of inhibitor using the following equation: [formula] where A=minimal Y value (activity level of inhibited sample), B=maximal Y value (activity level of uninhibited sample), C=Log IC50, D=Hill Slope, x=concentration of inhibitor. MPO Chlorination Assay (APF Assay)

The target of assay [2] is T1, myeloperoxidase (MPO). Description: MPO chlorination assay (APF assay). The assay is classed as biochemical. To be noted: potency range class. On the procedure: [formula] where A=minimal Y value (activity level of inhibited sample), B=maximal Y value (activity level of uninhibited sample), C=Log IC50, D=Hill Slope, x=concentration of inhibitor. MPO Chlorination Assay (APF Assay) MPO chlorination activity was measured in 100 mM KPi (pH 7.4) by utilizing the non-fluorescent reagent Aminophenyl fluorescein (APF, Invitrogen Cat. #A36003). APF is cleaved by (—OCl) to yield the fluorescent compound fluorescein. Reactions were carried out in 50 μL total volume by adding a 25 μL mixture of 200 pM myeloperoxidase and 120 mM NaCl to 100 nL inhibitor in 100% DMSO in a 384 well, non-binding surface clear bottom plate (Corning #3655). Enzyme, inhibitor, and chloride were preincubated for ten minutes at room temperature. After the ten minute preincubation, 25 μL of an APF mixture containing […], 120 mM NaCl and 10 μM H2O2 was added to the plate using the internal dispensing system of a Hammatsu FDSS 6000. Kinetic determinations were carried out immediately on the FDSS 6000 (3 minute kinetic read, 1 read every second, ex: 485 nm, em: 535 nm). IC50 values for inhibitors were calculated by taking the slope of the linear portion of the kinetic measurement (20 seconds to ˜80-120 secs). IC50 values were calculated by determining the slope of the linear portion of the kinetic trace […], and using that calculated slope to determine % inhibition occurring at each concentration of inhibitor using the following equation: [formula] where A=minimal Y value (activity level of inhibited sample), B=maximal Y value (activity level of uninhibited sample), C=Log IC50, D=Hill Slope, x=concentration of inhibitor. EPX Bromination Assay

T1 sequence (P05164 49-745): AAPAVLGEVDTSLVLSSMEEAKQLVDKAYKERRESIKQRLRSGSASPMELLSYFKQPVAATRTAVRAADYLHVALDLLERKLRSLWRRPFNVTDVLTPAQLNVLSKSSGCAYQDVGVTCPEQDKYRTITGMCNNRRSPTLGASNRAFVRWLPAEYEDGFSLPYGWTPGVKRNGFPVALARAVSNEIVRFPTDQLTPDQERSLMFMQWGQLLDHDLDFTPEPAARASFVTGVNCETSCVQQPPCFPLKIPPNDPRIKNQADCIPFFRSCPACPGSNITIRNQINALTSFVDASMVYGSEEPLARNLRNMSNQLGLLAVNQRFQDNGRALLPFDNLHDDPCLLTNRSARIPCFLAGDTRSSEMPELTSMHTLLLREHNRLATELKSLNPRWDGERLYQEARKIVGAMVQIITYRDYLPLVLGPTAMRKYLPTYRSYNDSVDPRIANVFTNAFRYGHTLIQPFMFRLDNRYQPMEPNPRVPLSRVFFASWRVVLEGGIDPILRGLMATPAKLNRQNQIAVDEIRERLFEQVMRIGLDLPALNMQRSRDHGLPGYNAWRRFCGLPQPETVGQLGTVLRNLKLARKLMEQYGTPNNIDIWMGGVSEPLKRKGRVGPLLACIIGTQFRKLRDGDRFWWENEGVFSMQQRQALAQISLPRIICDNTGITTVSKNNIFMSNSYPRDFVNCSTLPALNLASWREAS

Turning to `Nc1cc(Cc2cnn(-c3cccc(COc4ccccc4)c3)c2)c2nn[nH]c2n1` [Example 36, 7-((1-(3-(Phenoxymethyl)phenyl)-1H-pyrazol-4-yl)methyl)-3H-[1,2,3]triazolo[4,5-b]pyridin-5-amine], the IC50 in assay [1] was in the range of 1 to 100 nM; in assay [2], 101 to 999 nM.

As for `Nc1cc(Cc2cnn(Cc3ccc(-c4ccccc4)cc3)c2)c2nn[nH]c2n1` [Example 39, 7-((1-([1,1′-Biphenyl]-4-ylmethyl)-1H-pyrazol-4-yl)methyl)-3H-[1,2,3]triazolo[4,5-b]pyridin-5-amine], the IC50 was 1 to 100 nM in assay [1] and 101 to 999 nM in assay [2].

Turning to `Nc1cc(Cc2cnn(CCc3ccccc3)c2)c2nn[nH]c2n1` [Example 40, 7-((1-Phenethyl-1H-pyrazol-4-yl)methyl)-3H-[1,2,3]triazolo[4,5-b]pyridin-5-amine], the IC50 in assay [1] and in assay [2] was 1 to 100 nM each time.

Regarding `Nc1cc(Cc2cnn(Cc3cccc4ccccc34)c2)c2nn[nH]c2n1` [Example 41, 7-((1-(Naphthalen-1-ylmethyl)-1H-pyrazol-4-yl)methyl)-3H-[1,2,3]triazolo[4,5-b]pyridin-5-amine], the IC50 in assay [1] and in assay [2] was 1 to 100 nM in each case.

As for `Nc1cc(Cc2cnn(Cc3ccc4ccccc4c3)c2)c2nn[nH]c2n1` [Example 42, 7-((1-(Naphthalen-2-ylmethyl)-1H-pyrazol-4-yl)methyl)-3H-[1,2,3]triazolo[4,5-b]pyridin-5-amine], the IC50 in assay [1] and in assay [2] was 1 to 100 nM throughout.

As to `Cc1ccccc1Cn1cc(Cc2cc(N)nc3[nH]nnc23)cn1` [Example 43, 7-((1-(2-Methylbenzyl)-1H-pyrazol-4-yl)methyl)-3H-[1,2,3]triazolo[4,5-b]pyridin-5-amine], the IC50 lay in the range of 1 to 100 nM in assay [1] and 101 to 999 nM in assay [2].

As for `Nc1cc(Cc2cnn(Cc3cccc(-c4ccccc4)c3)c2)c2nn[nH]c2n1` [Example 44, 7-((1-([1,1′-Biphenyl]-3-ylmethyl)-1H-pyrazol-4-yl)methyl)-3H-[1,2,3]triazolo[4,5-b]pyridin-5-amine], the IC50 in assay [1] and in assay [2] was 1 to 100 nM each time.

As to `Nc1cc(Cc2cnn(Cc3ccc(Cl)cc3)c2)c2nn[nH]c2n1` [Example 45, 7-((1-(4-Chlorobenzyl)-1H-pyrazol-4-yl)methyl)-3H-[1,2,3]triazolo[4,5-b]pyridin-5-amine], the 50% inhibitory concentration (IC50) in assay [1] and in assay [2] was 1 to 100 nM throughout.

Consider `Nc1cc(Cc2cnn(Cc3ccc(C(=O)O)cc3)c2)c2nn[nH]c2n1` [Example 46, 4-((4-((5-Amino-3H-[1,2,3]triazolo[4,5-b]pyridin-7-yl)methyl)-1H-pyrazol-1-yl)methyl)benzoic acid], for which the IC50 in assay [1] and in assay [2] was 1000 to 10000 nM throughout.

As for `Nc1cc(Cc2cc(-c3ccccc3)no2)c2nn[nH]c2n1` [Example 48, 7-((3-Phenylisoxazol-5-yl)methyl)-3H-[1,2,3]triazolo[4,5-b]pyridin-5-amine], the IC50 in assay [1] and in assay [2] was 101 to 999 nM throughout.

For `Nc1cc(Cc2cnn(C3CCCC3)c2)c2nn[nH]c2n1` [Example 54, 7-((1-Cyclopentyl-1H-pyrazol-4-yl)methyl)-3H-[1,2,3]triazolo[4,5-b]pyridin-5-amine], the IC50 in assay [1] and in assay [2] was 1 to 100 nM each time.

`Nc1cc(Cc2cnn(CC3CCCCC3)c2)c2nn[nH]c2n1` [Example 55, 7-((1-(Cyclohexylmethyl)-1H-pyrazol-4-yl)methyl)-3H-[1,2,3]triazolo[4,5-b]pyridin-5-amine]: the IC50 in assay [1] and in assay [2] was 1 to 100 nM throughout.

Take `Nc1cc(Cc2cnn(Cc3ccc(-n4cccn4)cc3)c2)c2nn[nH]c2n1` [Example 56, 7-[(1-{[4-(1H-Pyrazol-1-yl)phenyl]methyl}-1H-pyrazol-4-yl)methyl]-3H-[1,2,3]triazolo[4,5-b]pyridin-5-amine]: the IC50 in assay [1] was in the range of 1 to 100 nM; in assay [2], 101 to 999 nM.
